Experiments:
giant foxtail = assay: Test B pre/postemergence giant foxtail; type: in vivo, Setaria faberii
How it was run: (§1)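 Test chemicals in a non-phytotoxic solvent mixture with surfactant were sprayed preemergence onto planted seeds and postemergence onto plants 2 to 18 cm tall (1- to 4-leaf stage). After twelve to sixteen days in a greenhouse, injury was visually rated against untreated controls from 0 (no effect) to 10 (complete control).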

blackgrass = assay: Test B pre/postemergence blackgrass; type: in vivo, Alopecurus myosuroides
How it was run: as §1

purple nutsedge = assay: Test B pre/postemergence purple nutsedge; type: in vivo, Cyperus rotundus
How it was run: as §1

wheat = assay: Test B pre/postemergence wheat; type: in vivo, Triticum aestivum; details: for Wheat plant response rating (0 to 10 scale): 0 is no effect
How it was run: as §1

[1] = Postemergence, Rate 125 g/ha, scale of 0 to 10 where 0 is no effect and 10 is complete control
[2] = Preemergence, Rate 62 g/ha, scale 0 to 10 (0 no effect, 10 complete control)
[3] = Preemergence, Rate 125 g/ha, 0 is no effect, 10 is complete control
[4] = Preemergence, Rate 250 g/ha, scale 0 to 10, 0 is no effect, 10 is complete control
[5] = Preemergence, Rate 500 g/ha, scale 0 to 10 (0 no effect, 10 complete control)
[6] = Rate 62 g/ha, Postemergence, scale of 0 to 10 where 0 is no effect and 10 is complete control
[7] = Rate 250 g/ha, Postemergence, scale 0 to 10, 0 is no effect, 10 is complete control
[8] = Rate 500 g/ha, Postemergence, scale 0 to 10
[9] = Preemergence, Rate 125 g/ha, 10 is complete control
[10] = Preemergence, Rate 62 g/ha, scale of 0 to 10 where 0 is no effect and 10 is complete control
[11] = Preemergence, Rate 250 g/ha, scale of 0 to 10 where 0 is no effect and 10 is complete control
[12] = Preemergence, Rate 500 g/ha, scale of 0 to 10 where 0 is no effect and 10 is complete control
[13] = Rate 125 g/ha, Postemergence, scale 0 to 10
[14] = Rate 125 g/ha, Preemergence, scale of 0 to 10 where 0 is no effect and 10 is complete control
[15] = Postemergence, Rate 62 g/ha, scale 0 to 10, 0 is no effect, 10 is complete control
[16] = Postemergence, Rate 250 g/ha, scale 0 to 10, 0 no effect, 10 complete control
[17] = Preemergence, Rate 125 g/ha, scale 0 to 10 (0 no effect, 10 complete control)
[18] = Preemergence, Rate 500 g/ha, scale 0 (no effect) to 10 (complete control)
[19] = Rate 500 g/ha, Postemergence, scale 0 to 10, 0 no effect, 10 complete control
[20] = Postemergence, Rate 250 g/ha, scale of 0 to 10, 0 is no effect, 10 is complete control
[21] = Postemergence, Rate 500 g/ha, scale of 0 to 10 where 0 is no effect and 10 is complete control
[22] = Postemergence, Rate 1000 g/ha, scale 0 to 10 (0 no effect, 10 complete control)
[23] = Preemergence, Rate 125 g/ha, scale of 0 to 10 where 0 is no effect and 10 is complete control
[24] = Preemergence, Rate 250 g/ha, scale 0 to 10 (0 no effect, 10 complete control)
[25] = Rate 1000 g/ha, Preemergence, scale 0 to 10 (0 no effect, 10 complete control)
[26] = Preemergence, Rate 31 g/ha, visual rating, scale 0 to 10 (0 no effect, 10 complete control)
[27] = Preemergence, Rate 62 g/ha, scale 0 to 10, 0 is no effect, 10 is complete control
[28] = Rate 31 g/ha, Postemergence, scale 0 to 10
[29] = Rate 125 g/ha, Postemergence, scale 0 to 10, 0 no effect, 10 complete control

CCN(CC)C(=O)n1oc(=O)n(Cc2ccccc2)c1=O [Compound 152]
2: Blackgrass plant response rating (blackgrass; [8])
3: Giant foxtail plant response rating (giant foxtail; [4]) | Giant foxtail plant response rating (giant foxtail; [8]) | Blackgrass plant response rating (blackgrass; [5])
0: Giant foxtail plant response rating (giant foxtail; [1]) | Giant foxtail plant response rating (giant foxtail; [2]) | Giant foxtail plant response rating (0 to 10 scale) (giant foxtail; [3]) | Giant foxtail plant response rating (giant foxtail; [6]) | Plant response rating, Giant foxtail (giant foxtail; [7]) | Blackgrass plant response rating (blackgrass; [1]) | Blackgrass plant response rating (blackgrass; [2]) | Blackgrass plant response rating (0 to 10 scale) (blackgrass; [3]) | Blackgrass plant response rating (blackgrass; [4]) | Blackgrass plant response rating (blackgrass; [6]) | Plant response rating, Blackgrass (blackgrass; [7]) | Nutsedge plant response rating (purple nutsedge; [1]) | Nutsedge plant response rating (purple nutsedge; [2]) | Nutsedge plant response rating (0 to 10 scale) (purple nutsedge; [3]) | Nutsedge plant response rating (purple nutsedge; [4]) | Nutsedge plant response rating (purple nutsedge; [5]) | Nutsedge plant response rating (purple nutsedge; [6]) | Plant response rating, Nutsedge (purple nutsedge; [7]) | Nutsedge plant response rating (purple nutsedge; [8]) | Wheat plant response rating (wheat; [2]) | Wheat plant response rating (0 to 10 scale) (wheat; [9]) | Wheat plant response rating (wheat; [4]) | Wheat plant response rating (wheat; [5]) | Wheat plant response rating (wheat; [6]) | Plant response rating, Wheat (wheat; [7]) | Wheat plant response rating (wheat; [8])
5: Giant foxtail plant response rating (giant foxtail; [5])

COC(=O)Cn1c(=O)on(C(=O)N(c2ccc(F)cc2)C(C)C)c1=O [Compound 215]
3: Giant foxtail plant response rating (giant foxtail; [10]) | Giant foxtail plant response rating (giant foxtail; [11]) | Giant foxtail plant response rating (giant foxtail; [14]) | Plant response rating (0 to 10; 0 is no effect, 10 is complete control), Giant foxtail (giant foxtail; Rate 250 g/ha, Postemergence) | Wheat plant response rating (wheat; [6]) | Wheat plant response rating (wheat; [13])
6: Plant response rating, Blackgrass (blackgrass; [12]) | Blackgrass plant response rating (blackgrass; [14]) | Plant response rating (0 to 10; 0 is no effect, 10 is complete control), Wheat (wheat; Rate 250 g/ha, Postemergence)
0: Giant foxtail plant response rating (giant foxtail; [6]) | Giant foxtail plant response rating (giant foxtail; [13]) | Blackgrass plant response rating (blackgrass; [6]) | Blackgrass plant response rating (blackgrass; [13]) | Nutsedge plant response rating (purple nutsedge; [10]) | Nutsedge plant response rating (purple nutsedge; [11]) | Plant response rating, Nutsedge (purple nutsedge; [12]) | Nutsedge plant response rating (purple nutsedge; [6]) | Nutsedge plant response rating (purple nutsedge; [13]) | Nutsedge plant response rating (purple nutsedge; [14]) | Plant response rating (0 to 10; 0 is no effect, 10 is complete control), Nutsedge (purple nutsedge; Rate 250 g/ha, Postemergence) | Nutsedge plant response rating (purple nutsedge; [8]) | Wheat plant response rating (wheat; [10]) | Wheat plant response rating (wheat; [11]) | Plant response rating, Wheat (wheat; [12]) | Wheat plant response rating (wheat; [14])
4: Blackgrass plant response rating (blackgrass; [10]) | Plant response rating (0 to 10; 0 is no effect, 10 is complete control), Blackgrass (blackgrass; Rate 250 g/ha, Postemergence)
5: Plant response rating, Giant foxtail (giant foxtail; [12]) | Giant foxtail plant response rating (giant foxtail; [8]) | Blackgrass plant response rating (blackgrass; [8])

CC(C)N(C(=O)n1oc(=O)n(-c2cnn(C)c2Cl)c1=O)c1ccc(F)cc1 [Compound 97]
1: Plant response rating, Blackgrass (blackgrass; [17]) | Plant response rating, Blackgrass (blackgrass; [11])
2: Wheat plant response rating (wheat; [18])
4: Plant response rating, Giant foxtail (giant foxtail; [11]) | Giant foxtail plant response rating (giant foxtail; [19])
5: Blackgrass plant response rating (blackgrass; [19])
8: Giant foxtail plant response rating (giant foxtail; [18])
3: Giant foxtail plant response rating (giant foxtail; [16]) | Plant response rating, Giant foxtail (giant foxtail; [17]) | Blackgrass plant response rating (blackgrass; [16]) | Blackgrass plant response rating (blackgrass; [18])
0: Giant foxtail plant response rating (giant foxtail; [15]) | Giant foxtail plant response rating (giant foxtail; [1]) | Giant foxtail plant response rating (giant foxtail; [2]) | Blackgrass plant response rating (blackgrass; [15]) | Blackgrass plant response rating (blackgrass; [1]) | Blackgrass plant response rating (blackgrass; [2]) | Nutsedge plant response rating (purple nutsedge; [15]) | Nutsedge plant response rating (purple nutsedge; [1]) | Nutsedge plant response rating (purple nutsedge; [16]) | Nutsedge plant response rating (purple nutsedge; [2]) | Plant response rating, Nutsedge (purple nutsedge; [17]) | Plant response rating, Nutsedge (purple nutsedge; [11]) | Nutsedge plant response rating (purple nutsedge; [18]) | Nutsedge plant response rating (purple nutsedge; [19]) | Wheat plant response rating (wheat; [15]) | Wheat plant response rating (wheat; [1]) | Wheat plant response rating (wheat; [2]) | Wheat plant response rating (0 to 10 scale) (wheat; [9]) | Plant response rating, Wheat (wheat; [11]) | Plant response rating, Wheat (wheat; [7]) | Wheat plant response rating (wheat; [19])

COC(=O)C(C)n1c(=O)on(C(=O)N(c2ccc(F)cc2)C(C)C)c1=O (stereo not drawn) [Compound 616]
9: Plant response rating, Giant foxtail (giant foxtail; [25])
4: Plant response rating, Blackgrass (blackgrass; [24])
7: Giant foxtail plant response rating (giant foxtail; [22]) | Plant response rating, Giant foxtail (giant foxtail; [24])
3: Plant response rating, Giant foxtail (giant foxtail; [1]) | Giant foxtail plant response rating (giant foxtail; [20])
1: Giant foxtail plant response rating (giant foxtail; [23])
5: Plant response rating, Giant foxtail (giant foxtail; [12]) | Plant response rating, Blackgrass (blackgrass; [21])
6: Plant response rating, Giant foxtail (giant foxtail; [21]) | Blackgrass plant response rating (blackgrass; [12])
0: Plant response rating, Blackgrass (blackgrass; [1]) | Blackgrass plant response rating (blackgrass; [20]) | Blackgrass plant response rating (blackgrass; [23]) | Plant response rating, Nutsedge (purple nutsedge; [1]) | Nutsedge plant response rating (purple nutsedge; [20]) | Plant response rating, Nutsedge (purple nutsedge; [21]) | Plant response rating, Nutsedge (purple nutsedge; [24]) | Plant response rating, Nutsedge (purple nutsedge; [12]) | Plant response rating, Nutsedge (purple nutsedge; [25]) | Plant response rating, Wheat (wheat; [1]) | Wheat plant response rating (wheat; [20]) | Plant response rating, Wheat (wheat; [21]) | Wheat plant response rating (wheat; [22]) | Wheat plant response rating (wheat; [23]) | Plant response rating, Wheat (wheat; [24]) | Plant response rating, Wheat (wheat; [12]) | Plant response rating, Wheat (wheat; [25])
8: Plant response rating, Blackgrass (blackgrass; [25])

COc1ccc(-n2c(=O)on(C(=O)N(c3ccc(F)cc3F)C(C)C)c2=O)c(OC)c1 [Compound 32]
9: Plant response rating, Giant foxtail (giant foxtail; [11])
2: Plant response rating, Blackgrass (blackgrass; [17])
7: Blackgrass plant response rating (blackgrass; [16])
4: Plant response rating, Giant foxtail (giant foxtail; [27]) | Plant response rating, Blackgrass (blackgrass; [11])
0: Giant foxtail plant response rating (giant foxtail; [15]) | Giant foxtail plant response rating (giant foxtail; [16]) | Giant foxtail plant response rating (giant foxtail; [28]) | Giant foxtail plant response rating (giant foxtail; [29]) | Blackgrass plant response rating (blackgrass; [15]) | Blackgrass plant response rating (blackgrass; [26]) | Blackgrass plant response rating (blackgrass; [28]) | Blackgrass plant response rating (blackgrass; [29]) | Nutsedge plant response rating (purple nutsedge; [15]) | Nutsedge plant response rating (purple nutsedge; [16]) | Nutsedge plant response rating (purple nutsedge; [26]) | Plant response rating, Nutsedge (purple nutsedge; [27]) | Plant response rating, Nutsedge (purple nutsedge; [17]) | Plant response rating, Nutsedge (purple nutsedge; [11]) | Nutsedge plant response rating (purple nutsedge; [28]) | Nutsedge plant response rating (purple nutsedge; [29]) | Wheat plant response rating (wheat; [15]) | Wheat plant response rating (wheat; [16]) | Wheat plant response rating (wheat; [26]) | Plant response rating, Wheat (wheat; [27]) | Plant response rating, Wheat (wheat; [17]) | Plant response rating, Wheat (wheat; [11]) | Wheat plant response rating (wheat; [29])
8: Plant response rating, Giant foxtail (giant foxtail; [17])
1: Giant foxtail plant response rating (giant foxtail; [26]) | Plant response rating, Blackgrass (blackgrass; [27])
